Laboratory results from patent US12285393B2, “Roles of modulators of intersectin-Cdc42 signaling in Alzheimer's disease” (priority 2017, dated 2025).

Columns and labels:
[1] = system: WT and 3×Tg-AD mice; experiment: Eyeblink classical conditioning test; assay type: in vivo
Description: Six-month-old C57/BL6 (WT) and 3×Tg-AD mice with an average weight of 24 g from Jackson Laboratory (Bar Harbor, Maine, United States of America) were used. The 3×Tg-AD mice in hybrid 129/C57BL/6 background contain two mutant human transgenes, hAPP harboring Swedish mutation (hAPPswe) and mutant htau (htau301L) under a neuron-specific promoter, and also contain the knock-in mutant presenilin 1 (PS1M146V). See Oddo et al. (2003) Neuron 39:409-421). 3×Tg-AD mice were received from Jackson Laboratory as Psen1 B6:129-Psen1<tmMpm>Tg(APPSwetauP301L)1Lfa/J and the wild type control as SF2: (B6129SF1/J+p+Tyr-c+Mgf-SIJ)F2. All mice were subjected to two weeks of training for familiarizing behavioral test procedures. Subsequently, mice were assayed to establish a baseline of behavior tests before ZCL compound treatment. Then, mice were separated into three treatment groups (Control, ZCL278 and ZCL279). Both ZCL278 and ZCL279 were dissolved in sesame oil with 5% DMSO and each treatment was administrated via an intraperitoneal injection. All treatment groups of mice were treated once a week. Control group was treated with 130 μl 5% DMSO in sesame oil. ZCL278 and ZCL279 groups were treated with 20 μg/g ZCL 278 or ZCL 279 in sesame oil (5% DMSO). On the day following drug treatment, all mice were subjected to a burrowing test, nesting test and contact avoidance evaluations. On the 4th week of experiment, selected female mice from each group were submitted to Morris water maze test and eye blink test.
Eye blinking test: Eyeblink classical conditioning (ECC) behavior testing was performed based on a method described previously. See Rufer et al., PLoS One, 2012, 7(10):e47499; and Thomas & Tran, Hippocampus, 2012, 22:619-630. Briefly, the day after ZCL compound treatment, two stainless steel recording electrodes (3T, Medwire, Mount Vernon, New York, United States of America) were implanted in the left orbicularis oculi muscle in all mice, and a bipolar stimulating electrode adjacent to the left eye. […]

[2] = system: amyloid deposits; experiment: Amyloid deposition in the hippocampus (antibody 4G8 immunostaining); assay type: in vivo, mice; conditions: for amyloid deposits in the hippocampus: 3×Tg AD mice (untreated: average of 4); for amyloid deposition in the hippocampus: WT mice
Method: (§1) Tissue preparation: Mice were deeply anesthetized with 3% isoflourane vapor and euthanized by cervical dislocation. Brain tissues were harvested, and then either snap frozen for Western Blot analysis or fixed in 4% paraformaldehyde overnight for immunohistochemistry (IHC) analysis. Fixed brain tissues were washed with phosphate-buffered saline (PBS) and moved to cryoprotectant (30% sucrose in PBS) at 4° C. Once sunk in the cryoprotectant, brain tissues were subsequently embedded in the optimal cutting temperature compound (O.C.T) and rapidly frozen with chilled isopentane. Then, 8˜30 μm thickness of cryostate section was applied to brain tissues, 30 μm sections were immersed in the PBS and store at 4° C. refrigerator, and 8 μm sections were store at −80° C. refrigerator.
(§2) Immunohistochemistry analysis: All sections were first treated with 1% H2O2 in PBS for 20 minutes at room temperature, then incubated with 0.5% Triton X-100 for 30 minutes and blocked for 30 minutes at room temperature. Brain tissues were incubated with primary antibodies from Table 6, below. […] All sections were eventually dehydrated in 95% ethanol and mounted on coverslips for light microscopy (Carl Zeiss, Thornwood, New York, United States of America).
(§3) Methods: Brain tissues collected from each treatment group of mice from the behavior studies were subjected to pathological analysis (e.g., immunohistochemical analysis, as described above in Example 5). […] Growth cone dynamics and spine motility were either recorded with time-lapse microscopy or stained by using the fluorescein isothiocyanate (FITC) or Cyanine Dye 3 (Cy3)-conjugated Phalloidin.

[3] = molecular target: Cdc42 (Homo sapiens, UniProt P60953); experiment: mant-GTP binding to Cdc42 with or without GEF/DH domain; assay type: biochemical; set-up: purchased Cytoskeleton Inc; conditions: 5-500 μM
Cdc42, sequence (P60953 whole entry, the tested form may be a part): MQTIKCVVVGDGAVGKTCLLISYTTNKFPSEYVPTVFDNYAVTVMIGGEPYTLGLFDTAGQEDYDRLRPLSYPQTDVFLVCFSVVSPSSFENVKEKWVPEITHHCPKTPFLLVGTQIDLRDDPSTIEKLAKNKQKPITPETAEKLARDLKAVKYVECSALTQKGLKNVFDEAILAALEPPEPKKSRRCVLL
Method: Cdc42 (1 μM) was incubated with mant-GTP (1.5 μM) and varying concentrations of ZCL278, ZCL279, or ZCL367 (5-500 μM). Fluorescent readings were taken every minute for 10 m to acquire the baseline. The GEF/DH domain (0.08-0.2 μM) was added followed by readings taken every minute for another 30 m. The linear phase was calculated from within the time period of 12-22 m. Cdc42 (1 μM) was incubated with mant-GTP (1.5 μM) and varying concentrations of ZCL278, ZCL279, or ZCL367 (5-500 μM). Fluorescent readings were taken every minute for 30 m to monitor the binding of mant-GTP in the absence of GEF/DH domain.

[4] = system: Swiss 3T3 cells; experiment: Immunofluorescence, cell morphology and bradykinin-mediated activation; assay type: cell-based; conditions: for changes to cell morphology: after 4 h of treatment, more drastic after six hours
Method: Immunofluorescence: Serum-starved Swiss 3T3 cells were pretreated with compound for 2 h before the addition of bradykinin (100 ng/mL) for 20 min. Cells were fixed in 4% paraformaldehyde for 15 min at RT and stored in PBS. Fixed cells were treated with 0.5% Triton for 30 min at RT, 100 mM Glycine 30 min at RT, and 10% BSA for 30 min at 37° C. Primary antibody for GM130 (1:1000, BD Biosciences, Franklin Lakes, New Jersey, United States of America) was used to probe for 1 h at RT followed by CY3-conjugated secondary antibody (1:1000) for 1 h at RT in the dark. Actin was stained with fluorescein-conjugated phalloidin (1:300). Hoechst (1:2500) was used to stain the nuclei. Coverslips were mounted onto slides using antifade medium from Life Technologies (Carlsbad, California, United States of America). Images were taken with a Zeiss Axiovert S100 microscope (Carl Zeiss; Thornwood, New York, United States of America).

[5] = system: microglia; experiment: Pro-inflammatory microglia in the hippocampus (Iba-1); assay type: in vivo; conditions: WT mice; 20× objective lens
Method: as §1, §2, §3

SMILES	CR percentage ([1]; WT mice)	amyloid deposits in the hippocampus [2]	amyloid deposition in the hippocampus [2]	effect on Cdc42 (mant-GTP binding) ([3]; in the absence of GEF domain)	effect on Cdc42 (mant-GTP binding) ([3]; in the presence of GEF domain)	kind of morphology change ([4]; Swiss 3T3 cells)	bradykinin-mediated activation ([4]; Swiss 3T3 cells, bradykinin 100 ng/mL)	changes to cell morphology [4]	Average Number of Microglia per Microscope Field, CA1 [5]	Average Number of Microglia per Microscope Field, CA2-3 [5]	Average Number of Microglia per Microscope Field, DG [5]	CR percentage ([1]; AD mice, after 6 training sessions (control AD mice about 20%))
Cc1cc(C)nc(NS(=O)(=O)c2ccc(NC(=S)NC(=O)COc3ccc(Br)cc3Cl)cc2)n1 [ZCL278, 4-(3-(2-(4-bromo-2-chloro-phenoxy)-acetyl)-thioureido)-N-(4,6-dimethylpyrimidin-2-yl)-benzenesulfonamide]	did not significantly change	no amyloid deposits	No amyloid deposition	activates Cdc42	acts as an inhibitor	increase in ramification	inhibit bradykinin-mediated activation	significant changes to cell morphology	12	10	8	–
O=S(=O)(Nc1ccccc1O)c1ccc2oc3ccc(S(=O)(=O)Nc4ccccc4O)cc3c2c1 [ZCL279, N^2,N^8-bis(2-hydroxyphenyl)dibenzo[b,d]furan-2,8-disulfonamide]	did not significantly change	no amyloid deposits	No amyloid deposition	has no effect	activates Cdc42	reduction in cell body size and formation of elongated processes	–	significant changes to cell morphology	13	10	4	about 35%
